Converted amounts (≈) assume the structure as drawn.
Legend:
[1] = Kinetic solubility in 0.1 N HCl, FaSSGF and FeSSIF at 37° C.; type: physicochemical
Experimental: The in vitro solubility of a crystalline form of Compound 1 and the amorphous form of Compound 1 was tested.
The amorphous form was prepared as described in Example 2, Method 1, and the crystalline form of Compound 1 was prepared as described in Example 1.
Crystalline and amorphous forms of Compound 1 were saturated in three different media: 0.1 N HCl solution, Fasted State Simulated Gastric Fluid (FaSSGF), and Fed State Simulated Intestinal Fluid (FeSSIF). The samples were shaken inside a 37° C. water bath at 40 rpm. The concentration of Compound 1 dissolved in these samples was measured by HPLC at four different time points (0.5, 1, 2 and 4 hours).

[2] = Solubility in IV formulation saline/PEG400/Tween80; type: physicochemical
Experimental: Intravenous (IV) formulations of a crystalline form of Compound 1 and the amorphous form of Compound 1 were prepared by contacting the amorphous of crystalline Compound 1 with saline/PEG400/Tween80 (88:10:1). The crystalline form of Compound 1 was prepared as described in Example 1, the amorphous form of Compound was prepared as described in Example 2, Method 1.

[3] = Dynamic vapor sorption (DVS) of the amorphous form; type: physicochemical
Experimental: To evaluate the hygroscopicity and physical stability of the amorphous form of Compound 1 under different humidity, dynamic vapor sorption (DVS) data was collected at 25° C. after the sample was pre-equilibrated at 0% RH to remove unbounded water. DVS was measured using a VTI SGA-100 Vapor Sorption Analyzer. Sorption and desorption data was collected over a range from 5% to 95% RH at 10% RH increments under a nitrogen purge. The equilibrium criterion used for analysis was less than 0.0100% weight change in 5 minutes with a maximum equilibrium time of 3 hours.

[4] = Stability storage test (25° C./60% RH, 12 months; HPLC, KF, XRPD); type: physicochemical; conditions: for Specified Individual Related Substances (HPLC): RRT1.05
Experimental: A sample of amorphous form of Compound 1 was tested by different analytical methods and the data was reported in the “Time Zero” column (Table 3). These analytical methods included: HPLC and Karl Fisher (KF). The sample was placed in double Low-Density Polyethylene (LDPE) bags, sealed with a cable tie, then placed in a High-Density Polyethylene (HDPE) bottle with foil and heat-induction sealed, with 0.5 g desiccant between LDPE bags. The HDPE bottle was stored inside an environment chamber at 25° C. and 60% relative humidity (RH). After 12 months inside the environment chamber, the sample was tested again by the same analytical methods.

[5] = In vivo rat PK study, oral aqueous liquid suspension formulation
Experimental: An in vivo rat PK study was conducted to compare the PK profile and bioavailability of crystalline form against amorphous form of Compound 1 in an aqueous liquid suspension formulation, which contained 0.5% w/v Hydroxypropyl Cellulose (Klucel GF grade) and 0.5% w/v Poloxamer F-68 (BASF Kolliphor P188). Each animal was orally administrated 10 mg/kg of Compound 1 at 5 mL/kg dosing volume (a dosing concentration of 2 mg/mL).

[6] = oral 10 mg/kg, suspension in 0.5% w/v Klucel GF and 0.5% w/v Poloxamer F-68, 10 mg/kg

CCX168 Solubility at 37° C. ([1]; 0.1N HCl (pH 1.06), 0.5 Hr.): 47.5 µg/mL
CCX168 Solubility at 37° C. ([1]; 0.1N HCl (pH 1.06), 1 Hr.): 54.0 µg/mL
CCX168 Solubility at 37° C. ([1]; 0.1N HCl (pH 1.06), 2 Hr.): 74.7 µg/mL
CCX168 Solubility at 37° C. ([1]; 0.1N HCl (pH 1.06), 4 Hr.): 61.7 µg/mL
CCX168 Solubility at 37° C. ([1]; FaSSGF (pH 1.64), 0.5 Hr.): 9.3 µg/mL
CCX168 Solubility at 37° C. ([1]; FaSSGF (pH 1.64), 1 Hr.): 7.8 µg/mL
CCX168 Solubility at 37° C. ([1]; FaSSGF (pH 1.64), 2 Hr.): BQL (BQL = Less than 3.1 μg/mL)
CCX168 Solubility at 37° C. ([1]; FaSSGF (pH 1.64), 4 Hr.): ND (ND = Not Detected)
CCX168 Solubility at 37° C. ([1]; FeSSIF (pH 4.90), 0.5 Hr.): 6.0 µg/mL
CCX168 Solubility at 37° C. ([1]; FeSSIF (pH 4.90), 1 Hr.): 9.9 µg/mL
CCX168 Solubility at 37° C. ([1]; FeSSIF (pH 4.90), 2 Hr.): 9.0 µg/mL
CCX168 Solubility at 37° C. ([1]; FeSSIF (pH 4.90), 4 Hr.): 7.4 µg/mL
aqueous solubility in an IV formulation compared to the crystalline form ([2]; particularly at early time points): improved the aqueous solubility
solubility at 8 h ([2]; saline/PEG400/Tween80 (88:10:1) IV formulation, aqueous with cosolvent or surfactant or cyclodextrin, thermodynamic from solid, saline/PEG400/Tween80 (88:10:1), 8 Hr.): 35.6 µg/mL (≈ 61.2 µM)
solubility at 24 h ([2]; saline/PEG400/Tween80 (88:10:1) IV formulation, aqueous with cosolvent or surfactant or cyclodextrin, thermodynamic from solid, saline/PEG400/Tween80 (88:10:1), 24 Hr.): 28.9 µg/mL (≈ 49.7 µM)
solubility at 48 h ([2]; saline/PEG400/Tween80 (88:10:1) IV formulation, aqueous with cosolvent or surfactant or cyclodextrin, thermodynamic from solid, saline/PEG400/Tween80 (88:10:1), 48 Hr.): 26.9 µg/mL (≈ 46.2 µM)
solubility at 96 h ([2]; saline/PEG400/Tween80 (88:10:1) IV formulation, aqueous with cosolvent or surfactant or cyclodextrin, thermodynamic from solid, saline/PEG400/Tween80 (88:10:1), 96 Hr.): 26.3 µg/mL (≈ 45.2 µM)
Solubility in IV Formulation ([2]; saline/PEG400/Tween80 (88:10:1), 0.5 Hr.): 140.0 µg/mL (≈ 241 µM)
Solubility in IV Formulation ([2]; saline/PEG400/Tween80 (88:10:1), 1 Hr.): 150.6 µg/mL (≈ 259 µM)
Solubility in IV Formulation ([2]; saline/PEG400/Tween80 (88:10:1), 2 Hr.): 96.1 µg/mL (≈ 165 µM)
Solubility in IV Formulation ([2]; saline/PEG400/Tween80 (88:10:1), 4 Hr.): 52.8 µg/mL (≈ 90.8 µM)
hygroscopicity ([3]; DVS, 25° C.): low hygroscopicity
hysteresis between adsorption and desorption (DVS plot) ([3]; DVS, 25° C.): no hysteresis
form change by XRPD before and after DVS test ([3]; XRPD, FIG. 7): no form change
weight gain after dynamic vapor sorption cycle ([3]; about 0% RH to about 65% RH at 25° C.): about 0.31%
Unspecified Individual Related Substances (HPLC) ([4]; RRT0.45, Time Zero): RRT0.45: <0.05%
Unspecified Individual Related Substances (HPLC) ([4]; RRT0.50, Time Zero): RRT0.50: <0.05%
Unspecified Individual Related Substances (HPLC) ([4]; RRT0.90, Time 12 months (25° C./60% RH)): RRT0.90: 0.20%
Unspecified Individual Related Substances (HPLC) ([4]; RRT0.90, Time Zero): RRT0.90: 0.05%
Unspecified Individual Related Substances (HPLC) ([4]; RRT0.96, Time 12 months (25° C./60% RH)): RRT0.96: <0.05%
Unspecified Individual Related Substances (HPLC) ([4]; RRT0.96, Time Zero): RRT0.96: <0.05%
Specified Individual Related Substances (HPLC) ([4]; Time 12 months (25° C./60% RH)): RRT1.05: <0.05%
Specified Individual Related Substances (HPLC) ([4]; Time Zero): RRT1.05: 0.08%
Unspecified Individual Related Substances (HPLC) ([4]; RRT1.06, Time 12 months (25° C./60% RH)): RRT1.06: 0.07%
Unspecified Individual Related Substances (HPLC) ([4]; RRT1.14, Time 12 months (25° C./60% RH)): RRT1.14: <0.05%
Unspecified Individual Related Substances (HPLC) ([4]; RRT1.14, Time Zero): RRT1.14: 0.05%
Unspecified Individual Related Substances (HPLC) ([4]; RRT1.16, Time Zero): RRT1.16: <0.05%
Unspecified Individual Related Substances (HPLC) ([4]; RRT1.20, Time Zero): RRT1.20: 0.22%
Unspecified Individual Related Substances (HPLC) ([4]; RRT1.21, Time Zero): RRT1.21: 0.06%
Unspecified Individual Related Substances (HPLC) ([4]; RRT1.22, Time Zero): RRT1.22: <0.05%
Appearance ([4]; Time 12 months (25° C./60% RH)): Off-white Powder
Potency (HPLC) ([4]; Time 12 months (25° C./60% RH)): 98.9% w/w
Total Impurities and Related Substances (HPLC) ([4]; Time 12 months (25° C./60% RH)): 0.20%
Water Content (KF) ([4]; Time 12 months (25° C./60% RH)): 0.31%
enantiomeric impurity ([4]; Time 12 months (25° C./60% RH)): 0.0%
Appearance ([4]; Time Zero): Off-white Powder
Potency (HPLC) ([4]; Time Zero): 99.5% w/w
Total Impurities and Related Substances (HPLC) ([4]; Time Zero): 0.38%
Water Content (KF) ([4]; Time Zero): 0.33%
enantiomeric impurity ([4]; Time Zero): 0.0%
AUC(0-inf) ([5]; in vivo, oral 10 mg/kg, suspension in 0.5% w/v Klucel GF and 0.5% w/v Poloxamer F-68): 2470 ng·h/mL
AUC0-t ([5]; in vivo, oral 10 mg/kg, suspension in 0.5% w/v Klucel GF and 0.5% w/v Poloxamer F-68, read-out: AUC0-t): 2410 ng·h/mL
Cmax ([5]; in vivo, oral 10 mg/kg, suspension in 0.5% w/v Klucel GF and 0.5% w/v Poloxamer F-68, read-out: Cmax): 388 ng/mL
Cmax and AUC compared to the formulation containing crystalline form ([5]; oral 10 mg/kg suspension): significant increase in Cmax and AUC
MRT [5, 6]: 5.6 h
Tmax [5, 6]: 2 h
t1/2 [5, 6]: 4.7 h
Structure (SMILES): Cc1ccc(NC(=O)[C@H]2CCCN(C(=O)c3c(C)cccc3F)[C@H]2c2ccc(NC3CCCC3)cc2)cc1C(F)(F)F [Amorphous Compound 1, (2R,3S)-2-(4-(cyclopentylamino)phenyl)-1-(2-fluoro-6-methylbenzoyl)-N-(4-methyl-3-(trifluoromethyl)phenyl)piperidine-3-carboxamide]

From patent US11603356B2, “Amorphous form of a complement component C5a receptor” (CHEMOCENTRYX, INC., priority 2019, dated 2023)
